Test results published in ChEMBL document CHEMBL1201862, “PubChem BioAssay data set” (2004).
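Compound exposure: 48 hours, 5 concentrations, 96-well plates. GI50 marks 50% less growth.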 The source made the active and inactive calls. No stated cut-off is given here; in the data, active = GI50 up to about 1.1 µM and inactive = higher.

Assays:
Assay in all cases: inhibition of tumour cell growth, NCI panel, 48 h
[1] = system: 786-0
[2] = system: EKVX
[3] = system: HCC 2998
[4] = system: HCT-116
[5] = system: HOP-92
[6] = system: HT-29
[7] = system: KM12
[8] = system: M14
[9] = system: MOLT-4
[10] = system: NCI-H226
[11] = system: NCI-H23
[12] = system: NCI-H522
[13] = system: RPMI-8226
[14] = system: RXF 393
[15] = system: SK-MEL-28
[16] = system: SNB-78
[17] = system: SR
[18] = system: TK-10
[19] = system: MDA-MB-435

| Structure (SMILES) | GI50 [1] | GI50 [2] | GI50 [3] | GI50 [4] | GI50 [5] | GI50 [6] | GI50 [7] | GI50 [8] | GI50 [9] | GI50 [10] | GI50 [11] | GI50 [12] | GI50 [13] | GI50 [14] | GI50 [15] | GI50 [16] | GI50 [17] | GI50 [18] | GI50 [19] |
| --- | --- | --- | --- | --- | --- | --- | --- | --- | --- | --- | --- | --- | --- | --- | --- | --- | --- | --- | --- |
| CC(C)N(C(=O)C12C3C4C5(C#N)C3C1(C#N)C5C42I)C(C)C (configuration not stated) | > 100 µM (inactive) | > 100 µM (inactive) | > 100 µM (inactive) | 17.4 µM (inactive) | > 100 µM (inactive) | > 100 µM (inactive) | > 100 µM (inactive) | > 100 µM (inactive) | 40.8 µM (inactive) | > 100 µM (inactive) | > 100 µM (inactive) | > 33.7 µM (inactive) | > 46.1 µM (inactive) | > 100 µM (inactive) | > 100 µM (inactive) | > 100 µM (inactive) | 13.4 µM (inactive) | > 100 µM (inactive) | – |
| CCN(CC)c1ccc2c(c1)Nc1cc(=C(C#N)C#N)c3ccccc3c1=N2 | > 100 µM (inactive) | > 100 µM (inactive) | > 100 µM (inactive) | 82.6 µM (inactive) | > 100 µM (inactive) | > 100 µM (inactive) | > 100 µM (inactive) | > 100 µM (inactive) | > 100 µM (inactive) | > 100 µM (inactive) | > 100 µM (inactive) | > 100 µM (inactive) | > 100 µM (inactive) | > 100 µM (inactive) | > 100 µM (inactive) | > 100 µM (inactive) | > 100 µM (inactive) | > 100 µM (inactive) | – |
| CC(/C=C/C(=O)c1sc(-n2nc(-c3ccccc3)cc2-c2ccccc2)nc1C)=C\c1ccccc1 | 96.4 µM (inactive) | 5.05 µM (inactive) | 23.7 µM (inactive) | 62.5 µM (inactive) | 8.69 µM (inactive) | > 10 µM (inactive) | 23.8 µM (inactive) | > 10 µM (inactive) | 9.06 µM (inactive) | > 10 µM (inactive) | 8.3 µM (inactive) | 19 µM (inactive) | 19.3 µM (inactive) | > 10 µM (inactive) | > 10 µM (inactive) | > 10 µM (inactive) | 27.2 µM (inactive) | > 10 µM (inactive) | – |
| C=CCONC(=O)c1ccc(Cl)cc1 | > 100 µM (inactive) | > 100 µM (inactive) | > 100 µM (inactive) | > 100 µM (inactive) | > 100 µM (inactive) | > 100 µM (inactive) | > 100 µM (inactive) | > 100 µM (inactive) | > 100 µM (inactive) | – | > 100 µM (inactive) | > 100 µM (inactive) | > 100 µM (inactive) | > 100 µM (inactive) | > 100 µM (inactive) | > 100 µM (inactive) | > 100 µM (inactive) | > 100 µM (inactive) | – |
| CC1OC(OC2CC(O)(C(=O)CO)Cc3c(O)c4c(c(O)c32)C(=O)c2ccccc2C4=O)CC(N)C1O (configuration not stated) | < 0.01 µM (active) | 0.158 µM (active) | < 0.01 µM (active) | < 0.01 µM (active) | < 0.0338 µM (active) | < 0.0135 µM (active) | 0.0168 µM (active) | < 0.015 µM (active) | < 0.01 µM (active) | < 0.01 µM (active) | 0.0162 µM (active) | < 0.0183 µM (active) | < 0.01 µM (active) | 0.0162 µM (active) | 0.0573 µM (active) | 0.0637 µM (active) | < 0.01 µM (active) | 0.0559 µM (active) | 0.156 µM (active) |
| CN(C(=O)C12C3(C(=O)C(C)(C)C)C4C5(C#N)C3C1(C(=O)C(C)(C)C)C5C42C(=O)C(C)(C)C)C(C)(C)C (configuration not stated) | > 50 µM (inactive) | 43.3 µM (inactive) | > 50 µM (inactive) | 24.2 µM (inactive) | 30.8 µM (inactive) | > 50 µM (inactive) | > 50 µM (inactive) | > 50 µM (inactive) | 20 µM (inactive) | > 50 µM (inactive) | 40.6 µM (inactive) | 14.5 µM (inactive) | – | – | > 50 µM (inactive) | > 50 µM (inactive) | 43.8 µM (inactive) | > 50 µM (inactive) | – |
| O=C(NCc1ccccc1)C1C(=O)C(=O)N(Cc2ccccc2)C1=O (configuration not stated) | > 100 µM (inactive) | > 100 µM (inactive) | > 100 µM (inactive) | > 100 µM (inactive) | > 100 µM (inactive) | > 100 µM (inactive) | > 100 µM (inactive) | > 100 µM (inactive) | > 100 µM (inactive) | > 100 µM (inactive) | > 100 µM (inactive) | > 100 µM (inactive) | > 100 µM (inactive) | > 100 µM (inactive) | > 100 µM (inactive) | > 100 µM (inactive) | > 100 µM (inactive) | > 100 µM (inactive) | – |
| CN(C)C(=S)/N=c1\sn(C)/c(=N\C(=S)N(C)C)n1C | > 100 µM (inactive) | > 100 µM (inactive) | > 100 µM (inactive) | > 100 µM (inactive) | > 100 µM (inactive) | 25.9 µM (inactive) | 86.1 µM (inactive) | > 100 µM (inactive) | > 100 µM (inactive) | > 100 µM (inactive) | 30.8 µM (inactive) | 29.4 µM (inactive) | > 100 µM (inactive) | > 100 µM (inactive) | > 100 µM (inactive) | > 100 µM (inactive) | > 100 µM (inactive) | > 100 µM (inactive) | – |
| O=C1c2cc3c(cc2[C@@H]2NC4CCCC14O2)OCO3 (some centres not stated) | > 100 µM (inactive) | > 100 µM (inactive) | – | > 100 µM (inactive) | > 100 µM (inactive) | > 100 µM (inactive) | > 100 µM (inactive) | > 100 µM (inactive) | > 100 µM (inactive) | > 100 µM (inactive) | > 100 µM (inactive) | > 100 µM (inactive) | – | > 100 µM (inactive) | > 100 µM (inactive) | > 100 µM (inactive) | > 100 µM (inactive) | > 100 µM (inactive) | – |
| O=C(c1cc2c(C(F)(F)F)onc2c2ccccc12)C(F)(F)F | 1.93 µM (inactive) | 7.38 µM (inactive) | 4.55 µM (inactive) | 0.0452 µM (active) | 1.58 µM (inactive) | 3.7 µM (inactive) | 0.746 µM (active) | 3.94 µM (inactive) | 1.15 µM (inactive) | 3.01 µM (inactive) | 0.929 µM (active) | 1.78 µM (inactive) | 0.935 µM (active) | 4.3 µM (inactive) | 3.44 µM (inactive) | 0.236 µM (active) | 1.41 µM (inactive) | 7.4 µM (inactive) | – |
| c1cc(-c2cn3c(n2)SCC3)ccn1 | 20.5 µM (inactive) | > 68.9 µM (inactive) | > 100 µM (inactive) | > 42.4 µM (inactive) | > 100 µM (inactive) | > 100 µM (inactive) | > 100 µM (inactive) | > 70.8 µM (inactive) | > 100 µM (inactive) | > 100 µM (inactive) | > 100 µM (inactive) | > 100 µM (inactive) | > 65.5 µM (inactive) | – | – | > 100 µM (inactive) | > 100 µM (inactive) | > 100 µM (inactive) | – |
